Laboratory results as given in patent US5792742A, “Fibrin-binding peptide fragments of fibronectin” (New York University, priority 1994, dated 1998).
pIC50: −log10 of the molar value.

Experiments:
thrombi = test: Preliminary thrombus binding dose experiment in rats; assay type: in vivo; settings: 3.4 μCi/13.3 μg/rat (550 gr)
Procedure: Determination of thrombus to blood and thrombus to muscle ratios: Before performing the pharmacokinetic studies, the arterial and venous vessels of the same animals are wounded until a thrombus is formed. The ascending vena cava (below the kidneys) and the descending aorta (immediately above the bifurcation) are clamped with a rubber tipped mosquito clamps for 2 hours for the artery and one hour for the vein. A thrombotic occlusion is formed of approximately 1.5 cm length. The specific binding of ^125 I-FBP (11 kDa to start) to the preformed thrombus, is determined compared to blood and muscle (wt/wt), over time, following injection. The amount of ^125 I-FBP that binds to an injured vessel versus an uninjured vessel is also quantitated. The time for optimal binding is crucial for feasibility of imaging (less than two hours would be considered adequate). The testing of binding to thrombi prepared 24 hours (or longer) ahead (preformed thrombi) compared to newly formed thrombi is also performed. This will determine the efficacy of ^125 I-FBP to older and newly forming thrombi.
Dosimetry Studies: Determination of the optimal dose (μCi/μg/kg) required for binding (Dose response) to thrombi: Three different doses were injected following injury, and thrombi removed at the various indicated above.

fibrin = test: Competitive inhibition of 125I-11 kDa binding to fibrin-coated wells; settings: 125I-11 kDa 90 nM
Procedure: Analysis of the binding data was performed by non linear regression and curve fitting to the one-site competitive binding curves (GraphPad Prism).

Substance: 11 kDa FBP: 11 kDa C-terminal proteolytic (subtilisin) fibrin-binding fragment of human plasma fibronectin, residues 2123-2232 of SEQ ID NO:1
- binding to thrombi compared to blood (thrombi): sufficient binding to thrombi compared to blood
- concentration at which maximum inhibition was achieved (fibrin): 4 µM
- molar excess at maximum inhibition (fibrin): 44.4
- pIC50 (fibrin; 15 ng fibrin, 1 hour 22° C., read-out: IC50, 125I-11 kDa binding to fibrin decreased by 50%): 6.22
